Test results as given in patent US11401255B2, “Small molecule activators of Parkin enzyme function” (Mayo Foundation for Medical Education and Research, priority 2016, dated 2022).

Assays:
[1] = system: wp2[pKM101]+wp2 uvrA mixed 1:2; experiment: Ames Test, E. coli
Excerpt: The test used amino acid-dependent strains of Salmonella typhimurium and Escherichia coli to detect point mutations which involved substitution, addition or deletion of one or a few DNA base pairs. Point mutations were introduced in the histidine (Salmonella typhimurium) or the tryptophan (Escherichia coli) operon, making the tester strains incapable of producing these amino acids. The test detected mutations that revert the mutations present in the bacteria, restoring the functional capability to synthesize histidine or tryptophan. The revertant bacteria were detected by the ability to grow in the absence of the amino acid required by the parent test strain. A mutagenic potential of a tested compound was assessed by exposing these bacterial strains to different concentrations of the compounds and estimating number of revertant colonies grown in the absence (trace quantities) of the amino acid.
DMSO was used as the negative control.
For each experiment, tester strain cultures were grown overnight in Oxoid nutrient broth #2 at 37° C. with shaking at 235 rpm to a density of 1-2×10^9 colony forming units/mL (OD540˜2).
The tester strain (10 μL of night culture) was mixed with the test agent (10 µL of the DMSO stock) and GM liquid medium (30 μL). The obtained mixture was incubated at room temperature for 5 min in a sterile 1.5 mL tube. Then, to the tube was added 200 μL of molten top agar stored at 44° C. to prevent solidifying. After mixing with a pipette, the mixture was poured onto the surface of a GM agar plate (2.0 mL of GM agar per plate). After solidifying the top agar, the plate was inverted and incubated at 37° C. for 48 hours. Then, results were expressed as number of revertant colonies per plate.

HepG2 cells = experiment: Cytotoxicity assay (resazurin), HepG2 cell proliferation inhibition; assay type: cell-based; conditions: Homo sapiens, 24 hours
Description: Compounds 1-4 and 31 were tested in a cytotoxicity assay. The assay was based on the conversion of the non-fluorescent dye resazurin to the fluorescent compound rezorufin in the reducing environment of living cell cytoplasm. The more living cells in a sample result in higher fluorescence, while less living cells result in lower fluorescence.
HepG2 cells were cultivated in a humidified atmosphere at 37° C. and 5% CO2 in 75 cm^2 flasks to 80-90% of confluence and split twice per week with a subcultivation ratio of 1:4. The cell layer was rinsed with PBS to remove all traces of serum. Then 3.0 mL of solution containing 0.25% (w/v) trypsin and 0.53 mM EDTA was added to the flask and incubated about 10 minutes. The HepG2 cells were detached using a scraper and re-suspended in DMEM containing 10% FBS and 2 mM glutamine. The cell suspension with a final concentration of 5×10^5 cells/mL was dispensed into sterile 96-well black wall clear flat bottom plates as previously described (McMillian et al. (2002) Cell Biol. Toxicol. 18(3):157-173; Mulvihill et al. (2009) Future Med. Chem. 1(6):1153-1171) and the test compounds were added.
The compound DMSO stock solutions were diluted with PBS to achieve an intermediate concentration of 1 mM. The cell proliferation assessment was performed at different concentrations of compounds ranging from 0.1 μM to 100 μM. Doxorubicin at a final concentration of 20 μM was used as a positive control. After compound addition, cells were incubated for 24 hours in a humidified atmosphere at 37° C. and 5% CO2.
Resazurin was added to the final concentration (50 μM) and incubated for 4 hours under the same conditions. Presence of rezorufin (cell viability) was quantified by measuring fluorescence (Ex—490 nm, Em—540 nm; see Vega-Avila and Pugsley (2011) Proc. West Pharmacol. Soc. 54:10-14).
The percent of cell proliferation inhibition was calculated by applying the following formula: […]

[2] = system: CYP450 panel (1A2, 2C9, 2C19, 2D6, 3A4); experiment: P450-Glo CYP450 inhibition, whole panel; assay type: in vitro ADME; conditions: 10 μM
Description: All test points were performed in quadruplicates. Control membranes (without CYPs) represented the Negative control (baseline). DMSO final concentration was 0.25%.

[3] = 50 μM (row printed 100; conc. column shifted)
[4] = 100 μM (row printed 200; conc. column shifted)
[5] = 200 μM (row printed 0; conc. column shifted)

Row | SMILES | Fold increase (over baseline) [1, 3] | Mean ± SD [1, 3] | Fold increase (over baseline) [1, 4] | Mean ± SD [1, 4] | Fold increase (over baseline) [1, 5] | Mean ± SD [1, 5] | inhibition at 0.1 µM (HepG2 cells) | inhibition at 0.3 µM (HepG2 cells) | inhibition at 1 µM (HepG2 cells) | inhibition at 3 µM (HepG2 cells) | inhibition at 10 µM (HepG2 cells) | inhibition at 30 µM (HepG2 cells) | inhibition at 100 µM (HepG2 cells) | mutagenic activity ([1]; 200 μM) | inhibition of all 5 tested CYP450 [2]
1 | Cc1nc2c(c(N3CCCN(Cc4ccccc4)CC3)n1)CCCC2 [Compound 31] | 1.13 | 4.5 ± 3.53 revertant colonies per plate | 0.38 | 1.5 ± 0.7 revertant colonies per plate | 0 | 0 ± 0 revertant colonies per plate | 2% | -0.8% | -1.5% | -0.9% | -2.2% | -5.4% | -17.7% | – | –
2 | CC(C)(C)Sc1ccc(NC(=O)Cn2ccnc2)cc1 [Compound 3] | 1 | 4 ± 0 revertant colonies per plate | 1.75 | 7 ± 0 revertant colonies per plate | >75 | >300 revertant colonies per plate | -2.1% | 0.2% | 2.4% | 3.9% | 2.6% | -0.1% | 0.5% | mutagenic activity | very high inhibition
3 | O=C(Cn1cnc2c1CCCC2)Nc1ccc(-c2ccccc2)cc1 [Compound 1] | 0 | 0 ± 0 revertant colonies per plate | 0 | 0 ± 0 revertant colonies per plate | 0 | 0 ± 0 revertant colonies per plate | -0.1% | -2% | -0.6% | -1.8% | -3.9% | -2.5% | 0.1% | – | –
4 | O=C(Cn1ccnc1-c1ccccn1)Nc1ccc(-c2ccccc2)cc1 [Compound 4] | 0.75 | 3 ± 1.41 revertant colonies per plate | 0.38 | 1.5 ± 0.7 revertant colonies per plate | 1.38 | 5.5 ± 2.12 revertant colonies per plate | -1.8% | 0.1% | 0.8% | 5.4% | -1.4% | -3.8% | -5.5% | – | did not show a significant inhibition
5 | CC(C)c1nccn1CC(=O)Nc1ccc(-c2ccccc2)cc1 [Compound 2] | 0.63 | 2.5 ± 2.12 revertant colonies per plate | 0.38 | 1.5 ± 0.7 revertant colonies per plate | 0.5 | 2 ± 2.82 revertant colonies per plate | -1.8% | 2.8% | 1.2% | 5.6% | 2.6% | 2.4% | 14.7% | – | –
